Assay results published in patent publication US8552052B2, “Use of diindolylmethane-related indoles for the treatment and prevention of respiratory syncytial virus associated conditions” (BioResponse, L.L.C., priority 2004, dated 2013).
“Also recorded” adds a separate entry of the source.

Legend:
[1] = test system: RSV Long strain; assay: Respiratory rate in RSV infected BALB/c mice; type: in vivo; conditions: oral, SC low dose and SC high dose DIM; 6 and 10 days pi; vs RSV-infected, untreated control mice; FIG. 6
Protocol: (§1) The Following Experimental BALB/c Groups and Treatment Protocol Using DIM were Studied: • 1. RSV infected positive control group, infected with RSV and injected subcutaneously (SC) once daily with DMSO/Phosphate Buffered Saline (PBS) vehicle. • 2. RSV infected, Low dose Parenteral DIM group (15 mg/kg/day), injected SC once daily with DIM suspension • 3. RSV infected, High dose DIM Group (150 mg/kg/day), injected SC once daily with DIM suspension • 4. RSV infected, orally treated DIM group (250 mg/kg/day from absorption enhanced DIM [Example 6.1]), added to powdered feed • 5. Uninfected negative control group, nasally administered vehicle only, and injected subcutaneously (SC) once daily with DMSO/PBS vehicle
(§2) Mouse treatment, infection and harvest. Intranasal application of RSV in BALB/c mice followed an established procedure (Bitko et al., 2005, Nat Med. 11(1):50-5) and causes predictable pulmonary disease and inflammation. For RSV infection, RSV stock was diluted such that each mouse was given 10^7 pfu (plaque forming unit) of the virus intranasally. […]
Pulmonary viral assay and clinical measurements. […] Respiratory rates (breaths per min) were determined by counting over a period of 2-3 mins. […]

[2] = test system: Caspase-3; assay: Caspase-3 activation in RSV infected A549 cell culture; type: cell-based, human; conditions: RSV infected A549 cells; DIM 70, 210, and 700 nM
[3] = test system: breast cancer cells; conditions: cited from earlier work
[4] = test system: apoptosis-specific nucleosomes; assay: Nucleosome ELISA in lung of RSV infected BALB/c mice; type: in vivo; conditions: oral and subcutaneous DIM, FIG. 5B
Protocol: as §1, §2
Nucleosomes released in the cytoplasm during apoptosis were detected by a nucleosome ELISA assay kit (Calbiochem Nucleosome ELISA kit, Cat. No. QIA25, San Diego, Calif.) according to the manufacturer's protocol (User Protocol Q1A25 Rev. 28 Sep. 2005 RFH).

[5] = test system: RSV infected A549 cells; assay: TUNEL assay for visualization of apoptosis in RSV infected A549 cells; type: cell-based, human; conditions: DIM at 210 and 700 nM; 12, 18, and 24 hours post infection; data not shown
Protocol: Cell Culture—A549 cells, a tumor cell line with properties of normal airway epithelial cells, were obtained from American Type Culture Collection (ATCC, Manassas, Va.) and incubated at 37° C. in 5% CO2. The cells were cultured in Eagle's minimum essential medium (MEM, Invitrogen) supplemented with 10% fetal bovine serum (HyClone, Logan, Utah) and […] gentamicin. The A549 cells were subcultured by harvesting in 0.12% trypsin no more than 20 times from stock originally designated at pass 70. To minimize effects of exogenous growth factors or cytokines in this system, the supplemented serum concentration was reduced to 0.5% 24 h prior to and during all experiments with RSV infection.
RSV Virus—RSV, strain A2, was obtained from Advanced Biotechnologies Inc. (Columbia, Md.) and was used directly as supplied for all experiments. The viral preparation was tested to have a TCID50 titer of ˜1×10^9 in Hep-2 cells at 7 days. Sterile vials of the RSV preparation were supplied in MEM supplemented with 10% fetal calf serum, stored at −135° C. and rapidly thawed at 37° C. immediately prior to use. […]
Apotosis in RSV infected A549 cells cultured with and without DIM was further studied using the TUNEL assay for visualization of apoptosis. […] To remove unincorporated dUTP, slides were washed three times 15 min each with 2×SSC and three times with PBS, and then viewed in a fluorescence microscope. […]

c1ccc2c(Cc3c[nH]c4ccccc34)c[nH]c2c1 [DIM, 3,3′-diindolylmethane]
respiratory rate [1]: normalized respiratory rate; also recorded: lower respiratory rate
time of culture at which apoptosis specific Caspase-3 is activated [2]: less than 12 hrs
estrogenic activity [3]: estrogenic
apoptosis in mouse lung: apoptosis-specific nucleosomes [4]: increased presenence of apoptosis-specific nucleosomes
apoptosis in TUNEL stained photomicrographs [5]: clearly showed earlier apoptosis
